Data reported in article PMC9128629, “Identification and Characterization of Bifunctional Drimenol Synthases of Marine Bacterial Origin” (ACS Chemical Biology, 2022).

Legend:
Format in all cases: biochemical
[1] = molecular target: T1, FeDMS (Flavivirga eckloniae, UniProt A0A2K9PVZ9); assay: GC-MS detection of drimenol; details: 50 mM Tris-HCl pH 8.0, 2 mM MgCl2, 1 mM DTT, 100 μM FPP, 500 nM enzyme, 30 °C, 1 h, with or without alkaline phosphatase
T1 construct: gene C1H87_21965

[2] = molecular target: T2, AsDMS (Aquimarina spongiae drimenol synthase) (Aquimarina spongiae, UniProt A0A1M6CXF0); assay: GC-MS detection of drimenol; details: 50 mM Tris-HCl pH 8.0, 2 mM MgCl2, 1 mM DTT, 100 μM FPP, 200 nM enzyme, 30 °C, 1 h, with or without alkaline phosphatase
T2 construct: gene SAMN04488508_102320

[3] = molecular target: T3, AsDMS (Aquimarina spongiae drimenol synthase) (Aquimarina spongiae, UniProt A0A1M6CXF0, D182N/K183D, form not given); assay: GC-MS detection of drimenol; details: 50 mM Tris-HCl pH 8.0, 2 mM MgCl2, 1 mM DTT, 100 μM FPP, 200 nM enzyme, 30 °C, 1 h, with or without alkaline phosphatase
T3 construct: gene SAMN04488508_102320

[4] = molecular target: T2, AsDMS (Aquimarina spongiae drimenol synthase); assay: GC-MS detection of drimenol; details: 50 mM Tris-HCl pH 8.0, 2 mM MgCl2, 1 mM DTT, 100 μM FPP, 200 nM enzyme, 30 °C, 1 h, with or without alkaline phosphatase; remark: listed apart in the source
[5] = molecular target: T2, AsDMS (Aquimarina spongiae drimenol synthase); assay: GC-MS quantification of drimenol, Michaelis-Menten fit; details: 50 mM Tris-HCl pH 8.0, 2 mM MgCl2, 1 mM DTT, 0-120 μM FPP, 200 nM enzyme, 30 °C

T2 sequence (A0A1M6CXF0 entry or part of it): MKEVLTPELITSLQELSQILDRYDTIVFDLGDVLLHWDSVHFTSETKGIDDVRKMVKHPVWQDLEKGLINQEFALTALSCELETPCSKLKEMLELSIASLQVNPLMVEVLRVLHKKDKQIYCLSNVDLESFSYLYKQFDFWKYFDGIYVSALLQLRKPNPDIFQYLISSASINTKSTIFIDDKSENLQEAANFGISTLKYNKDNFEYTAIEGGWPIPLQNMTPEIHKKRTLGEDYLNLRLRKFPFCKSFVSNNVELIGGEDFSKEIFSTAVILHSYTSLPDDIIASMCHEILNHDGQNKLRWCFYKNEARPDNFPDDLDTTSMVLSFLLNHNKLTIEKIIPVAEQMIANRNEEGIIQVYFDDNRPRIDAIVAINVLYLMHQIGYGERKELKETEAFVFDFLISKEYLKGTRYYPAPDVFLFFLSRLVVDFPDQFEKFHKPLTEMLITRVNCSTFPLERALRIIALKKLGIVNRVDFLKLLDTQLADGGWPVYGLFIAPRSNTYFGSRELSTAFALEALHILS
T1 sequence (A0A2K9PVZ9 entry or part of it): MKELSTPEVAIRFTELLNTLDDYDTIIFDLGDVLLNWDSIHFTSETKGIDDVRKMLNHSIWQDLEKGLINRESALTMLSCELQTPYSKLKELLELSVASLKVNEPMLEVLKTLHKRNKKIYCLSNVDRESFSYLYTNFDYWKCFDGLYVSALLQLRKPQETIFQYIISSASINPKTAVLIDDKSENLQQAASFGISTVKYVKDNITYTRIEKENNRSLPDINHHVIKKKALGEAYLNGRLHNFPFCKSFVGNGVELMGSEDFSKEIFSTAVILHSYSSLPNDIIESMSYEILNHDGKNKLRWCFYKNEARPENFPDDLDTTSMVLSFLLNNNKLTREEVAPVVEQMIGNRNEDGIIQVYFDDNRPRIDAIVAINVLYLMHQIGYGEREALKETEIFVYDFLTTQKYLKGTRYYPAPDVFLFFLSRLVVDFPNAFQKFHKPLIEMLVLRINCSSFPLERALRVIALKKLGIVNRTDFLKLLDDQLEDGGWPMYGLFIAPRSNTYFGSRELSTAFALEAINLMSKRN
T3 sequence (A0A1M6CXF0 entry or part of it D182N/K183D, form open): as the sequence (A0A1M6CXF0 entry or part of it) above, with D182N, K183D counted along it

- GC-MS detection of drimenol [3]: a double mutant D196N/K197D
- Km [5]: 9.59 ± 2.15 µM
SMILES: CC(C)=CCC/C(C)=C/CC/C(C)=C/CO[P@@](=O)(O)OP(=O)(O)O [FPP]
- GC-MS detection of drimenol [1]: five proteins (AsDMS, A474DMS, A119DMS, FeDMS, and RbDMS) with FPP yielded a single compound
- GC-MS detection of drimenol [2]: exhibited almost equipotent activity to that of the WT
- GC-MS detection of drimenol [4]: The D196N mutant displayed a significant decrease in activity
